Tests used:
[1] = tested on: Phenoloxidase of the resistant strain (POr); settings: 20 mM PBS pH 6.5; room temperature; partially purified enzyme
[2] = tested on: Phenoloxidase of the susceptible strain (POs); assay: absorbance at […] nm, initial rate, microtiter plate; format: biochemical, Plutella xylostella; settings: 20 mM PBS pH 6.5; room temperature; partially purified enzyme

N[C@@H](Cc1ccc(O)c(O)c1)C(=O)O [L-DOPA]
Km [1]: 1110 µM
Km [2]: 1110 µM

— paper PMC2674291 (The Open Biochemistry Journal, 2009)
